Measured values as given in US12729368B2, “Methods and compositions for generating oligodendrocyte progenitor cells” (Trailhead Biosystems Inc., priority 2022, dated 2026).
“And” between values parts separate entries of the source, which are not always exact repeats. Identical values can stand only once.

What was measured:
Format in all cases: cell-based, human
[1] = system: pre-OPCs; assay: HD-DoE 12-factor model for stage 2 (version 1), 3 days on stage 1 pre-OPCs; settings: for factor contribution: optimized for maximum expression of OLIG2 at 1841.6
In short: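 Cells grown first in stage 1 medium were treated for 3 days with combinations of 8 or 12 factors, including FGF, TGF-b, WNT, RA, AKT, SHH, mTOR and PKC pathway modulators. Gene expression was modelled and maximized for OLIG2, with NKX2-2, SOX10, OLIG1 and PDGFRa tracked by dynamic profile analysis.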

[2] = system: stage 2 early-OPCs; assay: HD-DoE 12-factor model for stage 3 (version 1) on stage 2 early-OPCs; settings: positive
Protocol: In another model, the effects of Activin A and TTNPB along with LDN193189, MHY1485, PDGF-AA, AICAR, FGF2, CHIR99021, DBZ, MK2206, Purmorphamine and T3+T4 were tested on gene profile of differentiating cells. When this model was optimized for maximum expression of SOX10 at 54.7, we observed Activin A again had positive regulatory impact on its expression, with factor contribution of 4.7. Other positive factors included MK2206, with the highest factor contribution at 16.2, MHY1485 at 11.49, CHIR99021 at 9.6, DBZ at 9.3, FGF2 at 3.6 and PDGF-AA, with factor contribution less than 3 (FIG. 20).
In this model, we also investigated the conditions of expression of another important OPC gene, CSPG4 (Goldman and Kuypers (2015) Development 142:3983-95: van Tilborg et al. (2018) Glia 66:221-238).
Dynamic profile analysis was used to better assess the impact of the factors on our selected genes and find the combination set that can optimize their expression (FIG. 22). According to this analysis, even though Activin A has a positive effect on SOX10, it decreases level of PDGFRa and OLIG1. […] Moreover, SOX10 is one of the main transcription factors of oligodendrocytes, along with OLIG2 and NKX2-2, that has shown the potential to commit the stem cells to oligodendrocytes in reprogramming efforts (Wang et al. (2014) Proc Natl Acad Sci USA 111:E2885-94; Garciá-León et al. (2018) Stem Cell Reports 10:655-672). […] One of the main challenges of differentiating cells to oligodendrocyte fate is controlling the mixed population and increasing the purity of the culture by committing more cells to oligodendrocyte over neuronal identity. Therefore, DBZ was excluded from the final recipe.
At this point, we investigated the expression profile of a larger group of genes defining oligodendrocyte progenitor population at a later stage, including ID2, CNP and BCAN (Perlman et al. (2020). Glia 68:1291-1303; Goldman and Kuypers (2015) Development 142:3983-95). In this model, these genes were expressed at 1900, 660 and 44, respectively.

[3] = system: cells cultured in stage 1 and stage 2 differentiation media; assay: HD-DoE 8-factor model for stage 3 (version 2); settings: for factor contribution: positive

Row | Compound | factor contribution ([1]; positive regulatory effect) | factor contribution ([2]; optimized for maximum expression of SOX10 at 54.7) | effect on late OPC genes and neuronal genes ([3]; factor plots vs concentration) | factor contribution ([3]; optimized for SOX10 at 41.04) | effect on expression of SOX10 ([1]; dynamic profile, model maximized for OLIG2) | factor contribution ([1]; negative impact) | factor contribution ([2]; optimized for maximum expression of CSPG4 at 38.6) | factor contribution ([3]; optimized for maximum expression of PDGFRa at 853.4)
1 | FGF2: FGF pathway activator, an FGFR agonist | 12.9 | 3.6 | increased the expression levels of OPC genes while decreasing the expression levels of neuronal genes | 15.3 | – | – | – | –
2 | c1ccc2c(Oc3nc(Nc4ccc(N5CCOCC5)cc4)c4ncn(C5CCCCC5)c4n3)cccc2c1 [Purmorphamine] | – | – | – | – | positively regulate | 7.2 | 10.3 | 20.6 and 20.61
